Test results reported in PubChem BioAssay AID200 (DTP/NCI, 2004).
“And” between values parts separate entries of the source, which are not always exact repeats. Equal entries are not always repeated. Toxic doses and inconclusive results are not listed.

System: B6C3F1 mice, B16 melanoma ip, median survival T/C
Experiment: NCI In Vivo Anticancer Drug Screen. Data for tumor model B16 Melanoma (intraperitoneal) in B6C3F1 mice
Details: endpoint: median survival time, higher = longer survival
How it was run: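 Readout: survival or tumor size in treated mice relative to vehicle controls (T/C). Model uses transplantable tumors grown in mice.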

[1] = dose: 6.25 mg/kg/injection, schedule: Q01DX009 (ip), vehicle: saline
[2] = dose: 12.5 mg/kg/injection, schedule: Q01DX009 (ip), vehicle: saline
[3] = dose: 25.0 mg/kg/injection, schedule: Q01DX009 (ip), vehicle: saline
[4] = dose: 50.0 mg/kg/injection, schedule: Q01DX009 (ip), vehicle: saline
[5] = dose: 100.0 mg/kg/injection, schedule: Q01DX009 (ip), vehicle: saline
[6] = dose: 200.0 mg/kg/injection, schedule: Q01DX009 (ip), vehicle: saline
[7] = dose: 50.0 mg/kg/injection, schedule: Q01DX009 (ip), vehicle: Klucel (hydroxypropylcellulose) (HPC)
[8] = dose: 50.0 mg/kg/injection, schedule: Q01DX009 (ip), vehicle: saline with Tween-80
[9] = dose: 100.0 mg/kg/injection, schedule: Q01DX009 (ip), vehicle: saline with Tween-80
[10] = dose: 200.0 mg/kg/injection, schedule: Q01DX009 (ip), vehicle: saline with Tween-80
[11] = dose: 25.0 mg/kg/injection, schedule: Q01DX009 (ip), vehicle: saline with Tween-80
[12] = dose: 6.25 mg/kg/injection, schedule: Q01DX009 (ip), vehicle: saline with Tween-80
[13] = dose: 12.5 mg/kg/injection, schedule: Q01DX009 (ip), vehicle: saline with Tween-80
[14] = dose: 0.25 mg/kg/injection, schedule: Q01DX009 (ip), vehicle: saline with Tween-80

CCC(C)C(O)C(C)C(=O)C(C)/C=C(\C)CC(C)C1OC(=O)C1CC (centres undefined)
T/C (dose: 0.25 mg/kg/injection, schedule: Q01DX009 (ip), vehicle: saline + alcohol): 104 % of control
T/C (dose: 0.5 mg/kg/injection, schedule: Q01DX009 (ip), vehicle: saline + alcohol): 98 % of control and 104 % of control
T/C (dose: 1.0 mg/kg/injection, schedule: Q01DX009 (ip), vehicle: saline + alcohol): 109 % of control and 100 % of control
T/C (dose: 2.0 mg/kg/injection, schedule: Q01DX009 (ip), vehicle: saline + alcohol): 98 % of control and 103 % of control

O=C1c2ccccc2CCC1Br (centres undefined)
T/C (dose: 1.5 mg/kg/injection, schedule: Q01DX009 (ip), vehicle: DMSO): 87 % of control
T/C (dose: 3.0 mg/kg/injection, schedule: Q01DX009 (ip), vehicle: DMSO): 86 % of control and 87 % of control
T/C (dose: 6.0 mg/kg/injection, schedule: Q01DX009 (ip), vehicle: DMSO): 91 % of control
T/C (dose: 12.0 mg/kg/injection, schedule: Q01DX009 (ip), vehicle: DMSO): 94 % of control

Oc1ccccc1C=NCCC[N-]CCCN=Cc1ccccc1O.[Co]
T/C (dose: 6.25 mg/kg/injection, schedule: Q01DX008 (ip), vehicle: saline): 97 % of control
T/C [1]: 101 % of control
T/C (dose: 12.5 mg/kg/injection, schedule: Q01DX008 (ip), vehicle: saline): 107 % of control
T/C [2]: 107 % of control
T/C (dose: 25.0 mg/kg/injection, schedule: Q01DX008 (ip), vehicle: saline): 96 % of control
T/C [3]: 113 % of control
T/C (dose: 50.0 mg/kg/injection, schedule: Q01DX008 (ip), vehicle: saline): 86 % of control
T/C [4]: 105 % of control
T/C (dose: 100.0 mg/kg/injection, schedule: Q01DX008 (ip), vehicle: saline): 95 % of control

N=C(N)CCCCCCCCC(=N)N
T/C (dose: 0.78 mg/kg/injection, schedule: Q01DX009 (ip), vehicle: saline): 99 % of control and 102 % of control
T/C (dose: 1.56 mg/kg/injection, schedule: Q01DX009 (ip), vehicle: saline): 108 % of control and 112 % of control
T/C (dose: 3.12 mg/kg/injection, schedule: Q01DX009 (ip), vehicle: saline): 110 % of control
T/C (dose: 3.13 mg/kg/injection, schedule: Q01DX009 (ip), vehicle: saline): 102 % of control
T/C [1]: 118 % of control and 106 % of control
T/C [2]: 112 % of control

Nc1nc(/C=C(/O)c2ccccc2)c2ncn(C3OC(CO)C(O)C3O)c2n1 (centres undefined)
T/C (dose: 12.5 mg/kg/injection, schedule: Q01DX009 (ip), vehicle: distilled water + Tween-80): 103 % of control
T/C [2]: 102 % of control
T/C (dose: 25.0 mg/kg/injection, schedule: Q01DX009 (ip), vehicle: distilled water + Tween-80): 101 % of control
T/C [3]: 101 % of control
T/C (dose: 50.0 mg/kg/injection, schedule: Q01DX009 (ip), vehicle: distilled water + Tween-80): 95 % of control
T/C [4]: 111 % of control
T/C (dose: 100.0 mg/kg/injection, schedule: Q01DX009 (ip), vehicle: distilled water + Tween-80): 101 % of control
T/C [5]: 101 % of control
T/C [6]: 103 % of control

C[As](C)SCCC(N)C(=O)NC(CCS[As](C)C)C(=O)O (centres undefined)
T/C (dose: 6.25 mg/kg/injection, schedule: Q01DX009 (ip), vehicle: Klucel (hydroxypropylcellulose) (HPC)): 86 % of control
T/C (dose: 12.5 mg/kg/injection, schedule: Q01DX009 (ip), vehicle: Klucel (hydroxypropylcellulose) (HPC)): 91 % of control
T/C (dose: 25.0 mg/kg/injection, schedule: Q01DX009 (ip), vehicle: Klucel (hydroxypropylcellulose) (HPC)): 96 % of control
T/C [7]: 96 % of control

NC1=NC(O)C=C1 (centres undefined)
T/C (dose: 3.12 mg/kg/injection, schedule: Q01DX009 (ip), vehicle: saline + alcohol): 108 % of control
T/C (dose: 6.25 mg/kg/injection, schedule: Q01DX009 (ip), vehicle: saline + alcohol): 108 % of control
T/C (dose: 12.5 mg/kg/injection, schedule: Q01DX009 (ip), vehicle: saline + alcohol): 100 % of control
T/C (dose: 25.0 mg/kg/injection, schedule: Q01DX009 (ip), vehicle: saline + alcohol): 104 % of control

CC1C(c2ccccc2)OC(N2CCOCC2)C(C)(C)CN1C (centres undefined)
T/C [8]: 103 % of control
T/C [9]: 99 % of control
T/C [10]: 96 % of control
T/C (dose: 400.0 mg/kg/injection, schedule: Q01DX009 (ip), vehicle: saline with Tween-80): 100 % of control

O=C(O)CP(=O)(O)O
T/C [2]: 100 % of control
T/C [3]: 102 % of control and 107 % of control
T/C [4]: 102 % of control and 106 % of control
T/C [5]: 118 % of control and 121 % of control
T/C [6]: 164 % of control
T/C (dose: 400.0 mg/kg/injection, schedule: Q01DX009 (ip), vehicle: saline): 189 % of control and 227 % of control
T/C (dose: 800.0 mg/kg/injection, schedule: Q01DX009 (ip), vehicle: saline): 206 % of control and 255 % of control

CCCCc1ccc2nc(NC(=O)OC)[nH]c2c1
T/C [11]: 154 % of control
T/C [8]: 165 % of control
T/C [9]: 165 % of control

O=C(O)C(CSC(c1ccccc1)(c1ccccc1)c1ccccc1)N=Cc1cccs1 (centres undefined)
T/C (dose: 12.5 mg/kg/injection, schedule: Q01DX009 (ip), vehicle: suspension in saline): 112 % of control
T/C (dose: 25.0 mg/kg/injection, schedule: Q01DX009 (ip), vehicle: suspension in saline): 118 % of control

COC1=C(OC)C(=O)C(Sc2ccc3ccccc3c2)=CC1=O
T/C [12]: 86 % of control and 97 % of control
T/C [13]: 95 % of control
T/C [11]: 96 % of control
T/C [8]: 86 % of control

COc1cc2c(c(OC)c1OC)-c1ccc(OC)c(=O)cc1[C@@H](NC(=O)CCl)CC2
T/C (dose: 0.12 mg/kg/injection, schedule: Q01DX009 (ip), vehicle: saline with Tween-80): 154 % of control
T/C [14]: 154 % of control

CN1CCN(c2ccc3nc(-c4ccc5nc(-c6ccc(O)cc6)[nH]c5c4)[nH]c3c2)CC1
T/C [1]: 95 % of control
T/C [2]: 99 % of control
T/C [3]: 89 % of control

Cc1ccc(S(=O)(=O)OCOS(=O)(=O)c2ccc(C)cc2)cc1
T/C [7]: 120 % of control and 122 % of control
T/C (dose: 100.0 mg/kg/injection, schedule: Q01DX009 (ip), vehicle: Klucel (hydroxypropylcellulose) (HPC)): 117 % of control
T/C (dose: 200.0 mg/kg/injection, schedule: Q01DX009 (ip), vehicle: Klucel (hydroxypropylcellulose) (HPC)): 154 % of control
T/C (dose: 400.0 mg/kg/injection, schedule: Q01DX009 (ip), vehicle: Klucel (hydroxypropylcellulose) (HPC)): 191 % of control

CC1=CC2C(O)(CC(CO)=CC3C4C(C)(C)C4(OC(=O)c4ccccc4)C(OC(=O)c4ccccc4)C(C)C32O)C1=O (centres undefined)
T/C (dose: 0.13 mg/kg/injection, schedule: Q01DX009 (ip), vehicle: saline with Tween-80): 98 % of control
T/C [14]: 90 % of control
T/C (dose: 0.5 mg/kg/injection, schedule: Q01DX009 (ip), vehicle: saline with Tween-80): 93 % of control
T/C (dose: 1.0 mg/kg/injection, schedule: Q01DX009 (ip), vehicle: saline with Tween-80): 95 % of control
T/C (dose: 2.0 mg/kg/injection, schedule: Q01DX009 (ip), vehicle: saline with Tween-80): 90 % of control

CCCCCCCCCCCCNCCCc1ccccc1
T/C [13]: 94 % of control
T/C [11]: 93 % of control

CC1(C)CC23C4COC(=O)C2CCC1C3CC4=O (centres undefined)
T/C (dose: 6.25 mg/kg/injection, schedule: Q01DX009 (ip), vehicle: DMSO): 89 % of control
T/C (dose: 12.5 mg/kg/injection, schedule: Q01DX009 (ip), vehicle: DMSO): 90 % of control
T/C (dose: 25.0 mg/kg/injection, schedule: Q01DX009 (ip), vehicle: DMSO): 97 % of control
T/C (dose: 50.0 mg/kg/injection, schedule: Q01DX009 (ip), vehicle: DMSO): 99 % of control
T/C (dose: 100.0 mg/kg/injection, schedule: Q01DX009 (ip), vehicle: DMSO): 88 % of control
T/C (dose: 200.0 mg/kg/injection, schedule: Q01DX009 (ip), vehicle: DMSO): 96 % of control

Oc1ccc(/C=N/N=C/c2ccc(O)c(O)c2)cc1O
T/C [11]: 100 % of control
T/C [8]: 102 % of control
T/C [9]: 99 % of control
T/C [10]: 97 % of control

Nc1ccc(S(=O)(=O)N/N=C/c2ccccc2[N+](=O)[O-])cc1
T/C (dose: 3.12 mg/kg/injection, schedule: Q01DX009 (ip), vehicle: saline with Tween-80): 95 % of control
T/C [12]: 95 % of control
T/C [13]: 96 % of control
T/C [11]: 101 % of control
T/C [8]: 104 % of control

C/C=C1\C(=O)O[C@@]23C=C[C@H]4C(C(=O)OC)=CO[C@@H](O[C@H]12)[C@H]43
T/C (dose: 3.75 mg/kg/injection, schedule: Q01DX009 (ip), vehicle: Klucel (hydroxypropylcellulose) (HPC)): 101 % of control
T/C (dose: 7.5 mg/kg/injection, schedule: Q01DX009 (ip), vehicle: Klucel (hydroxypropylcellulose) (HPC)): 95 % of control
T/C (dose: 15.0 mg/kg/injection, schedule: Q01DX009 (ip), vehicle: Klucel (hydroxypropylcellulose) (HPC)): 95 % of control
